According to ChEMBL document CHEMBL1201862, “PubChem BioAssay data set” (2004):
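These data come from cells grown in 96-well plates and exposed to compound for 48 hours at five concentrations. GI50 is the concentration that inhibits growth by half.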 The source made the active and inactive calls. No stated cut-off is given here; in the data, active = GI50 up to about 1.1 µM and inactive = higher.

Columns and labels:
Test in all cases: DTP human tumour cell line panel, 48 h
A498 = test system: A498
HCC 2998 = test system: HCC 2998
HOP-62 = test system: HOP-62
Hs-578T = test system: Hs-578T
IGROV-1 = test system: IGROV-1
KM12 = test system: KM12
LOX IMVI = test system: LOX IMVI
M14 = test system: M14
MCF7 = test system: MCF7
NCI-H226 = test system: NCI-H226
RPMI-8226 = test system: RPMI-8226
SF-268 = test system: SF-268
SF-539 = test system: SF-539
SNB-19 = test system: SNB-19
T47D = test system: T47D
U-251 = test system: U-251
UACC-62 = test system: UACC-62
SK-MEL-2 = test system: SK-MEL-2

| SMILES | GI50 (A498) | GI50 (HCC 2998) | GI50 (HOP-62) | GI50 (Hs-578T) | GI50 (IGROV-1) | GI50 (KM12) | GI50 (LOX IMVI) | GI50 (M14) | GI50 (MCF7) | GI50 (NCI-H226) | GI50 (RPMI-8226) | GI50 (SF-268) | GI50 (SF-539) | GI50 (SNB-19) | GI50 (T47D) | GI50 (U-251) | GI50 (UACC-62) | GI50 (SK-MEL-2) |
| --- | --- | --- | --- | --- | --- | --- | --- | --- | --- | --- | --- | --- | --- | --- | --- | --- | --- | --- |
| O=[N+]([O-])c1cc(Cl)cnc1Br | 17.1 µM (inactive) | 1.37 µM (inactive) | 18.3 µM (inactive) | 7.16 µM (inactive) | 2.22 µM (inactive) | 4.03 µM (inactive) | 1.22 µM (inactive) | 3.87 µM (inactive) | 1.32 µM (inactive) | 2.61 µM (inactive) | 2.84 µM (inactive) | 2.64 µM (inactive) | 2.05 µM (inactive) | 9.71 µM (inactive) | 3.1 µM (inactive) | 2.16 µM (inactive) | 1.93 µM (inactive) | – |
| O=c1[nH]nc(-c2ccccc2)c2[nH]c3c4ccccc4ccc3c12 | 1.51 µM (inactive) | 0.948 µM (active) | 2.77 µM (inactive) | 1.79 µM (inactive) | 4.24 µM (inactive) | 0.692 µM (active) | – | 2.66 µM (inactive) | 0.331 µM (active) | 4.14 µM (inactive) | 0.746 µM (active) | 1.33 µM (inactive) | 0.964 µM (active) | 1.62 µM (inactive) | 5.4 µM (inactive) | 0.885 µM (active) | 1.2 µM (inactive) | 7.62 µM (inactive) |
| CC#CS(=O)(=O)c1ccccc1 | 15.4 µM (inactive) | 3.96 µM (inactive) | 21.7 µM (inactive) | 17.2 µM (inactive) | 11.9 µM (inactive) | – | 5.45 µM (inactive) | 5.87 µM (inactive) | 6.87 µM (inactive) | 9.91 µM (inactive) | – | 15.9 µM (inactive) | 4.08 µM (inactive) | 14.2 µM (inactive) | 2.33 µM (inactive) | 12.9 µM (inactive) | 3.24 µM (inactive) | 14.2 µM (inactive) |
| O=c1oc2ccc(Cl)cc2cc1-c1cn2ccsc2n1 | – | 34.1 µM (inactive) | 46.8 µM (inactive) | 76.4 µM (inactive) | 20.5 µM (inactive) | 42.4 µM (inactive) | 43.2 µM (inactive) | 57.7 µM (inactive) | 20.9 µM (inactive) | – | 41.5 µM (inactive) | 46.6 µM (inactive) | 98.4 µM (inactive) | 51.9 µM (inactive) | 34.5 µM (inactive) | 51.9 µM (inactive) | 34.3 µM (inactive) | 50.6 µM (inactive) |
| CCOC(=O)c1c(SC(=O)c2ccc(OC)cc2)n(-c2ccccc2)c(=S)n(-c2ccccc2)c1=O | 27.3 µM (inactive) | > 100 µM (inactive) | > 100 µM (inactive) | 45.4 µM (inactive) | 21.1 µM (inactive) | > 100 µM (inactive) | 36.3 µM (inactive) | 29.7 µM (inactive) | 30.9 µM (inactive) | 84.1 µM (inactive) | – | 18.6 µM (inactive) | 21.2 µM (inactive) | > 100 µM (inactive) | > 100 µM (inactive) | 33.6 µM (inactive) | > 100 µM (inactive) | – |
| O=C(O)C1CC2(C1)CC(C(=O)O)C2 (stereo not given) | > 100 µM (inactive) | > 100 µM (inactive) | > 100 µM (inactive) | > 100 µM (inactive) | > 100 µM (inactive) | > 100 µM (inactive) | > 100 µM (inactive) | > 100 µM (inactive) | > 100 µM (inactive) | – | > 100 µM (inactive) | – | > 100 µM (inactive) | > 100 µM (inactive) | > 100 µM (inactive) | > 100 µM (inactive) | > 100 µM (inactive) | > 100 µM (inactive) |
| COC1OC(C)/C(=N/O)C2OC(C)(C)OC12 (stereo not given) | > 100 µM (inactive) | > 100 µM (inactive) | > 100 µM (inactive) | > 100 µM (inactive) | > 100 µM (inactive) | > 100 µM (inactive) | > 100 µM (inactive) | > 100 µM (inactive) | 78.7 µM (inactive) | > 100 µM (inactive) | > 100 µM (inactive) | > 100 µM (inactive) | > 100 µM (inactive) | > 100 µM (inactive) | > 100 µM (inactive) | > 100 µM (inactive) | > 100 µM (inactive) | – |
| CCc1n[nH]c(=O)n1/N=C/c1ccc(/C=N/n2c(CC)n[nH]c2=O)cc1 | > 100 µM (inactive) | – | > 100 µM (inactive) | > 100 µM (inactive) | > 100 µM (inactive) | > 100 µM (inactive) | > 100 µM (inactive) | > 100 µM (inactive) | > 100 µM (inactive) | > 100 µM (inactive) | > 100 µM (inactive) | > 100 µM (inactive) | – | > 100 µM (inactive) | > 100 µM (inactive) | > 100 µM (inactive) | > 100 µM (inactive) | > 100 µM (inactive) |
| CC1(C)/C(=N\Nc2ccc([N+](=O)[O-])cc2[N+](=O)[O-])C2CCC1C2 (stereo not given) | – | – | 74.5 µM (inactive) | 5.41 µM (inactive) | > 100 µM (inactive) | 30.1 µM (inactive) | > 100 µM (inactive) | > 100 µM (inactive) | > 100 µM (inactive) | > 100 µM (inactive) | > 100 µM (inactive) | > 100 µM (inactive) | – | > 100 µM (inactive) | > 100 µM (inactive) | > 100 µM (inactive) | > 100 µM (inactive) | > 100 µM (inactive) |
| CC1CC/C(=C\c2ccc(Cl)cc2)C2OC(N)=C(C#N)C(c3ccc(Cl)cc3)=C12 (stereo not given) | – | – | 2.18 µM (inactive) | 15.6 µM (inactive) | 12.3 µM (inactive) | 11.7 µM (inactive) | 13 µM (inactive) | 16.2 µM (inactive) | 11.4 µM (inactive) | 11 µM (inactive) | 7.6 µM (inactive) | 13.2 µM (inactive) | 14.3 µM (inactive) | 20.4 µM (inactive) | 0.442 µM (active) | 15.2 µM (inactive) | 16.2 µM (inactive) | 10.8 µM (inactive) |
| O=C(Nc1ccccc1)c1cc2ccccc2c(/N=N\c2cccc([N+](=O)[O-])c2)c1O | > 100 µM (inactive) | > 100 µM (inactive) | 41.1 µM (inactive) | 21.2 µM (inactive) | 37.7 µM (inactive) | > 100 µM (inactive) | – | > 100 µM (inactive) | > 100 µM (inactive) | > 100 µM (inactive) | – | 48.6 µM (inactive) | 54.8 µM (inactive) | 31 µM (inactive) | > 100 µM (inactive) | 24.6 µM (inactive) | > 100 µM (inactive) | > 100 µM (inactive) |
| c1ccc2c3nnc(c2c1)SCCSCCCSCCS3 | 45.1 µM (inactive) | > 100 µM (inactive) | 29.4 µM (inactive) | 32.4 µM (inactive) | 34.4 µM (inactive) | > 100 µM (inactive) | > 100 µM (inactive) | > 100 µM (inactive) | > 100 µM (inactive) | 35.6 µM (inactive) | – | 43.5 µM (inactive) | 12.6 µM (inactive) | 26.5 µM (inactive) | > 100 µM (inactive) | 36.1 µM (inactive) | 57.5 µM (inactive) | 58.7 µM (inactive) |
| COc1ccc2c(c1)CCc1c-2n(CCN2CCOCC2)c2ccc(OC)cc12 | > 100 µM (inactive) | 3.92 µM (inactive) | > 100 µM (inactive) | 61.7 µM (inactive) | 80.2 µM (inactive) | 18.8 µM (inactive) | – | 28 µM (inactive) | 85.5 µM (inactive) | 25.5 µM (inactive) | 63.5 µM (inactive) | > 100 µM (inactive) | > 100 µM (inactive) | – | > 100 µM (inactive) | > 100 µM (inactive) | > 100 µM (inactive) | > 100 µM (inactive) |
| CCCCCn1c(=O)c2c(=O)[nH][nH]c2c2ccccc21 | > 100 µM (inactive) | > 100 µM (inactive) | > 100 µM (inactive) | > 100 µM (inactive) | > 100 µM (inactive) | > 100 µM (inactive) | > 100 µM (inactive) | – | > 100 µM (inactive) | > 100 µM (inactive) | > 100 µM (inactive) | > 100 µM (inactive) | > 100 µM (inactive) | – | > 100 µM (inactive) | > 100 µM (inactive) | > 100 µM (inactive) | > 100 µM (inactive) |
| OCCN(CCO)c1nc(N2CCCCC2)c2nc(N(CCO)CCO)nc(N3CCCCC3)c2n1 [DIPYRIDAMOLE] | – | 16.3 µM (inactive) | 29 µM (inactive) | 31.8 µM (inactive) | 66.7 µM (inactive) | 43 µM (inactive) | 37 µM (inactive) | 55.8 µM (inactive) | > 10 µM (inactive) | 48.9 µM (inactive) | > 10 µM (inactive) | – | – | – | 35.6 µM (inactive) | – | – | 34.6 µM (inactive) |
| COC(=O)CCCC(=O)O | > 100 µM (inactive) | – | > 100 µM (inactive) | > 100 µM (inactive) | > 100 µM (inactive) | > 100 µM (inactive) | > 100 µM (inactive) | > 100 µM (inactive) | > 100 µM (inactive) | > 100 µM (inactive) | – | > 100 µM (inactive) | – | > 100 µM (inactive) | > 100 µM (inactive) | > 100 µM (inactive) | > 100 µM (inactive) | > 100 µM (inactive) |
| CCCCCCCCCCCCCCCCCCNC(=O)C(N)Cc1ccc(OCc2ccccc2)cn1 (stereo not given) | 20.3 µM (inactive) | 11.9 µM (inactive) | 19 µM (inactive) | 21.6 µM (inactive) | 15.2 µM (inactive) | 18.6 µM (inactive) | 17.4 µM (inactive) | 17.9 µM (inactive) | 19.4 µM (inactive) | – | 18.5 µM (inactive) | 21.9 µM (inactive) | – | 19.8 µM (inactive) | 20.4 µM (inactive) | 18.5 µM (inactive) | 16.7 µM (inactive) | 17.1 µM (inactive) |
